Measurements as given in patent US20250018048A1, “FLUCONAZOLE-COX INHIBITOR HYBRIDS: A DUAL-ACTING CLASS OF ANTIFUNGAL AZOLES” (Ramot at Tel-Aviv University Ltd., priority 2022, published 2025).
Values after ≈ are worked out from the molar mass of the structure shown.

How the values were obtained:
Format in all cases: cell-based
[1] = tested on: C. guilliermondii T-47; test: MIC80 broth double-dilution assay; conditions: YPAD medium, 30° C., 24 h
Procedure: (§1) The antifungal activities of the 24 azole-COX inhibitor hybrids were evaluated against a panel of 16 representative strains of different species of the genus Candida. Candida species cause both superficial and systemic infections. The panel included strains of C. albicans, C. glabrata, C. parapsilosis, C. tropicalis, C. guilliermondii, C. dubliniensis, and C. auris (Table S2). To evaluate antifungal activity, the minimal inhibitory concentration 80% (MIC80) values were determined, which were defined as the lowest drug concentrations with turbidity (measured at OD600) less than or equal to that of specific 1:5 dilutions of the growth control. As controls, FLC and VOR, were tested.
(§2) C. albicans, C. glabrata, C. parapsilosis, C. guilliermondii, C. tropicalis, and C. dubliniensis MICs were determined using CLSI M27-A3 guidelines with minor modifications. Starter cultures were streaked from glycerol stock onto YPAD agar plates and grown for 24 h at 30° C. Colonies were suspended in 1 mL PBS and diluted to 1×10^−3 OD600 and then diluted 1:100 into fresh medium. Hybrids dissolved in DMSO were added to YPAD broth (32 μL stock solution in 1218 μL of YPAD broth), and serial double dilutions of hybrids in YPAD were prepared in flat-bottomed 96-well microplates (Corning) to enable testing of concentrations ranging from 64 μg/mL to 0.003 μg/mL. Control wells with yeast cells but no drug and blank wells containing only YPAD were prepared. An equal volume (100 μL) of yeast suspensions in YPAD broth was added to each well with the exceptions of the blank wells. MIC values (Tables S4-S6) were determined after 24 h at 30° C. by measuring the OD600 using a plate reader (Infinite M200 PRO, Tecan). MIC values were defined as the point at which the OD600 was reduced by >80% compared to the no-drug wells. Each concentration was tested in triplicate, and results were confirmed by two independent sets of experiments. FLC and VOR were used as control drugs.

[2] = tested on: C. dubliniensis T-99; test: MIC80 broth double-dilution assay; conditions: YPAD medium, 30° C., 24 h
Procedure: as §1
(§3) MIC80 values were determined using the broth microdilution method over a concentration range of 0.003-64 μg/mL. Orange circles represent C. albicans strains, yellow circles represent C. glabrata strains, and green circles represent C. parapsilosis, C. tropicalis, C. dubliniensis and C. auris. Cells were grown in YPAD medium at 30° C. (For C. auris strains 37° C.) 24 h. Each concentration was tested in triplicate, and results were confirmed in at least two independent experiments.
as §2

[3] = tested on: C. tropicalis 660; test: MIC80 broth double-dilution assay; conditions: YPAD medium, 30° C., 24 h
Procedure: as §1, §3, §2

[4] = tested on: C. albicans ATCC 90028; test: MIC80 broth double-dilution assay; conditions: YPAD medium, 30° C., 24 h
Procedure: as §1, §3, §2

[5] = tested on: C. albicans ATCC 24433; test: MIC80 broth double-dilution assay; conditions: YPAD medium, 30° C., 24 h
Procedure: as §1, §3, §2

[6] = tested on: C. parapsilosis ATCC 22019; test: MIC80 broth double-dilution assay; conditions: YPAD medium, 30° C., 24 h
Procedure: as §1, §3, §2

[7] = tested on: C. albicans P-87; test: MIC80 broth double-dilution assay; conditions: YPAD medium, 30° C., 24 h
Procedure: as §1, §3, §2

[8] = tested on: C. albicans SC5314; test: MIC80 broth double-dilution assay; conditions: YPAD medium, 30° C., 24 h
Procedure: as §1, §3, §2

[9] = tested on: C. albicans 742 (erg11ΔΔ/erg3ΔΔ mutant C. albicans strain); test: MIC80 broth double-dilution assay, strain lacking CYP51; conditions: YPAD medium, 30° C., 24 h; erg11ΔΔ/erg3ΔΔ mutant lacking CYP51
Procedure: as §1
(§4) The clinically used FLC and VOR act primarily by preventing ergosterol biosynthesis via inhibition of CYP51. Analysis was done to determine whether fungal growth inhibition by the hybrids required the presence of the ERG11 gene that encodes for CYP51. The antifungal activities of hybrids 1 and 5 and of FLC and VOR were determined against an erg11ΔΔ/erg3ΔΔ mutant C. albicans strain and against C. albicans SN152 from which this double knockout strain was derived (Table S2). […] Yeast growth was followed at OD600 over 48 h in 96-well plates containing serial double dilutions of the tested hybrids.
as §2

[10] = tested on: C. albicans SN152; test: MIC80 broth double-dilution assay; conditions: YPAD medium, 30° C., 24 h; parent strain of the erg11ΔΔ/erg3ΔΔ mutant
Procedure: as §1, §3, §4, §2

Structure (SMILES)	MIC80 against C. guilliermondii T-47 [1] [µg/mL]	MIC80 against C. dubliniensis T-99 [2] [µg/mL]	MIC80 against C. tropicalis 660 [3] [µg/mL]	MIC80 against C. albicans 90028 [4] [µg/mL]	MIC80 against C. albicans 24433 [5] [µg/mL]	MIC80 against C. parapsilosis 22019 [6] [µg/mL]	MIC80 against C. albicans P-87 [7] [µg/mL]	MIC80 against C. albicans SC5314 [8] [µg/mL]	MIC80 against C. albicans 742 [9] [µg/mL]	MIC80 against C. albicans SN152 [10] [µg/mL]
C[C@@H](C(=O)NC[C@@](O)(Cn1cncn1)c1ccc(F)cc1F)c1ccc(-c2ccccc2)c(F)c1 [Hybrid 7]	32 (≈ 66.6 µM)	0.5 (≈ 1.04 µM)	64 (≈ 133 µM)	8 (≈ 16.6 µM)	16 (≈ 33.3 µM)	8 (≈ 16.6 µM)	4 (≈ 8.32 µM)	4 (≈ 8.32 µM)	64 (≈ 133 µM)	8 (≈ 16.6 µM)
C[C@@H](C(=O)NC[C@@](O)(Cn1cncn1)c1ccc(F)cc1F)c1cccc(C(=O)c2ccccc2)c1 [Hybrid 15]	>64	16 (≈ 32.6 µM)	>64	>64	>64	>64	>64	>64	>64	>64
O=C(Cc1ccccc1Nc1c(Cl)cccc1Cl)NC[C@@](O)(Cn1cncn1)c1ccc(F)cc1F [Hybrid 24]	>64	2 (≈ 3.76 µM)	>64	>64	>64	>64	>64	>64	>64	>64
CC(C)Cc1ccc([C@H](C)C(=O)NC[C@@](O)(Cn2cncn2)c2ccc(F)cc2F)cc1 [Hybrid 4]	16 (≈ 36.2 µM)	0.03 (≈ 0.0678 µM)	>64	1 (≈ 2.26 µM)	2 (≈ 4.52 µM)	8 (≈ 18.1 µM)	0.5 (≈ 1.13 µM)	1 (≈ 2.26 µM)	>64	1 (≈ 2.26 µM)
C[C@H](C(=O)NC[C@@](O)(Cn1cncn1)c1ccc(F)cc1F)c1ccc(-c2ccccc2)c(F)c1 [Hybrid 8]	64 (≈ 133 µM)	2 (≈ 4.16 µM)	>64	64 (≈ 133 µM)	>64	64 (≈ 133 µM)	64 (≈ 133 µM)	32 (≈ 66.6 µM)	>64	64 (≈ 133 µM)
COc1ccc2cc([C@H](C)C(=O)NC[C@](O)(Cn3cncn3)c3ccc(F)cc3F)ccc2c1 [Hybrid 9]	2 (≈ 4.29 µM)	4 (≈ 8.57 µM)	2 (≈ 4.29 µM)	0.25 (≈ 0.536 µM)	0.5 (≈ 1.07 µM)	1 (≈ 2.14 µM)	0.25 (≈ 0.536 µM)	0.25 (≈ 0.536 µM)	64 (≈ 137 µM)	0.012 (≈ 0.0257 µM)
C[C@H](C(=O)NC[C@](O)(Cn1cncn1)c1ccc(F)cc1F)c1cccc(C(=O)c2ccccc2)c1 [Hybrid 13]	32 (≈ 65.2 µM)	64 (≈ 130 µM)	16 (≈ 32.6 µM)	2 (≈ 4.08 µM)	4 (≈ 8.15 µM)	8 (≈ 16.3 µM)	4 (≈ 8.15 µM)	2 (≈ 4.08 µM)	>64	2 (≈ 4.08 µM)
O=C(NC[C@@](O)(Cn1cncn1)c1ccc(F)cc1F)c1cccnc1Nc1cccc(C(F)(F)F)c1 [Hybrid 18]	>64	16 (≈ 30.9 µM)	>64	16 (≈ 30.9 µM)	8 (≈ 15.4 µM)	8 (≈ 15.4 µM)	16 (≈ 30.9 µM)	16 (≈ 30.9 µM)	64 (≈ 123 µM)	8 (≈ 15.4 µM)
C[C@@H](C(=O)NC[C@](O)(Cn1cncn1)c1ccc(F)cc1F)c1cccc(C(=O)c2ccccc2)c1 [Hybrid 14]	16 (≈ 32.6 µM)	4 (≈ 8.15 µM)	16 (≈ 32.6 µM)	1 (≈ 2.04 µM)	1 (≈ 2.04 µM)	8 (≈ 16.3 µM)	1 (≈ 2.04 µM)	1 (≈ 2.04 µM)	>64	0.5 (≈ 1.02 µM)
COc1ccc2cc([C@@H](C)C(=O)NC[C@@](O)(Cn3cncn3)c3ccc(F)cc3F)ccc2c1 [Hybrid 11]	8 (≈ 17.1 µM)	8 (≈ 17.1 µM)	8 (≈ 17.1 µM)	1 (≈ 2.14 µM)	1 (≈ 2.14 µM)	4 (≈ 8.57 µM)	1 (≈ 2.14 µM)	0.5 (≈ 1.07 µM)	>64	0.5 (≈ 1.07 µM)
C[C@@H](C(=O)NC[C@](O)(Cn1cncn1)c1ccc(F)cc1F)c1ccc(-c2ccccc2)c(F)c1 [Hybrid 6]	2 (≈ 4.16 µM)	2 (≈ 4.16 µM)	8 (≈ 16.6 µM)	0.12 (≈ 0.25 µM)	0.12 (≈ 0.25 µM)	2 (≈ 4.16 µM)	0.03 (≈ 0.0624 µM)	0.03 (≈ 0.0624 µM)	>64	0.06 (≈ 0.125 µM)
C[C@H](C(=O)NC[C@@](O)(Cn1cncn1)c1ccc(F)cc1F)c1cccc(C(=O)c2ccccc2)c1 [Hybrid 16]	>64	16 (≈ 32.6 µM)	>64	>64	>64	>64	>64	>64	>64	>64
O=C(NC[C@@](O)(Cn1cncn1)c1ccc(F)cc1F)c1cc(-c2ccc(F)cc2F)ccc1O [Hybrid 20]	>64	0.5 (≈ 1.03 µM)	>64	16 (≈ 32.9 µM)	16 (≈ 32.9 µM)	8 (≈ 16.4 µM)	8 (≈ 16.4 µM)	8 (≈ 16.4 µM)	32 (≈ 65.8 µM)	8 (≈ 16.4 µM)
